Counter-ions that a name gives are not always drawn. Like-named read-outs stand apart in the source and are kept apart here.
Key:
[1] = target: CYP3A4 (Homo sapiens (Human), UniProt P08684); assay: Cytochrome oxidase P450 inhibition study, CYP3A4; format: in vitro ADME; details: human liver microsomes
Protocol: LC-MS/MS methods were used to evaluate the inhibitory effects of compounds on CYP2C19, 2D6 and 3A4 subtypes. In this method, the test compound was mixed with a solution of human liver microsomes containing CYP model substrates, and incubated together under the addition of NADPH, then the inhibitory IC50 of the compound on CYP2C19, 2D6 and 3A4 was calculated by measuring the amount of metabolites of the model substrate in the reaction solution. The specific experimental method is as follows:
Compounds to be tested were prepared as stock solutions at 10 mM concentration with DMSO and then diluted to 4 mM with acetonitrile solution. At the same time, the corresponding reference inhibitor solutions for CYP subtypes were prepared, for example, the reference inhibitor was Ketoconazole, then these two compounds were prepared separately ([…] of inhibitor DMSO stock solution+[…] of acetonitrile), and the samples prepared under the above conditions were at 400× concentration. Then, the above solution was 3-fold diluted with DMSO/acetonitrile mixture (v/v: 40/60) to prepare the final test solution, and seven concentration points were set for each test compound, and the initial test final concentration was 10 μM. NADPH, CYP enzyme model substrate and human liver microsome solution were diluted to appropriate concentrations with pre-warmed potassium phosphate buffer (0.1 M, pH 7.4), respectively. The human liver microsome solution was purchased from BD Gentest (20 mg/mL, Corning, article number #452161).
[…] of human liver microsome solution (0.2 mg/mL) was added to each well containing the test compound in the 96-well plate, and then 2 mL of the final test sample of test compounds prepared by serial dilution as described above was added thereto; for each well corresponding to the reference inhibitors, […] of human liver microsome solution (0.2 mg/mL) and 1 mL of the final test sample were added. […] of the prepared corresponding model substrate was dispensed into a 96-well plate, and the microsome solution was mixed evenly, then 30 mL of the test compound/reference inhibitor-human liver microsome mixture was taken and transferred to the 96-well plate containing the substrate, and the mixture was mixed well and preheated at 37° C. for 5 minutes, then […] of 8 mM NADPH solution preheated at 37° C. was added thereto to start the reaction. A duplicate well control and a blank control without the addition of test substances were set at the same time. The 96-well plate containing a total volume of […] of reaction solution was incubated at 37° C. After the incubation, 120 μL of cold acetonitrile solution containing internal standard was added to each well to terminate the reaction, and then the 96-well plate was shaked on a microplate shaker for 5 minutes (600 rpm/min), and put into a centrifuge and centrifuged for 20 minutes at 6000 rpm, 4° C. Then 40 μL of supernatant from each well was transferred to another 96-well plate, and 80 μL of ultrapure water was added to each well, put into a shaker and mixed for 5 minutes (600 rpm/min), and centrifuged at 6000 rpm, 4° C., for 20 minutes. Then LC-MS/MS detection was performed. The inhibition rate was determined by comparing the amount of model substrate metabolites at each test concentration without test substance addition, in the GraphPad Prism 5.0 software, the logarithm of the test concentration was used as the abscissa and the inhibition rate was used as the ordinate to perform a linear regression (Sigmoidal (non-linear) dose-response model) analysis to obtain the IC50 value of the test compound.

[2] = target: ATR/ATRIP kinase (Homo sapiens (Human), UniProt Q13535); assay: ATR enzyme assay (HTRF, phosphorylation of substrate protein P53); format: biochemical; details: substrate P53, TR-FRET
Chain of ATR/ATRIP kinase (Q13535 whole entry): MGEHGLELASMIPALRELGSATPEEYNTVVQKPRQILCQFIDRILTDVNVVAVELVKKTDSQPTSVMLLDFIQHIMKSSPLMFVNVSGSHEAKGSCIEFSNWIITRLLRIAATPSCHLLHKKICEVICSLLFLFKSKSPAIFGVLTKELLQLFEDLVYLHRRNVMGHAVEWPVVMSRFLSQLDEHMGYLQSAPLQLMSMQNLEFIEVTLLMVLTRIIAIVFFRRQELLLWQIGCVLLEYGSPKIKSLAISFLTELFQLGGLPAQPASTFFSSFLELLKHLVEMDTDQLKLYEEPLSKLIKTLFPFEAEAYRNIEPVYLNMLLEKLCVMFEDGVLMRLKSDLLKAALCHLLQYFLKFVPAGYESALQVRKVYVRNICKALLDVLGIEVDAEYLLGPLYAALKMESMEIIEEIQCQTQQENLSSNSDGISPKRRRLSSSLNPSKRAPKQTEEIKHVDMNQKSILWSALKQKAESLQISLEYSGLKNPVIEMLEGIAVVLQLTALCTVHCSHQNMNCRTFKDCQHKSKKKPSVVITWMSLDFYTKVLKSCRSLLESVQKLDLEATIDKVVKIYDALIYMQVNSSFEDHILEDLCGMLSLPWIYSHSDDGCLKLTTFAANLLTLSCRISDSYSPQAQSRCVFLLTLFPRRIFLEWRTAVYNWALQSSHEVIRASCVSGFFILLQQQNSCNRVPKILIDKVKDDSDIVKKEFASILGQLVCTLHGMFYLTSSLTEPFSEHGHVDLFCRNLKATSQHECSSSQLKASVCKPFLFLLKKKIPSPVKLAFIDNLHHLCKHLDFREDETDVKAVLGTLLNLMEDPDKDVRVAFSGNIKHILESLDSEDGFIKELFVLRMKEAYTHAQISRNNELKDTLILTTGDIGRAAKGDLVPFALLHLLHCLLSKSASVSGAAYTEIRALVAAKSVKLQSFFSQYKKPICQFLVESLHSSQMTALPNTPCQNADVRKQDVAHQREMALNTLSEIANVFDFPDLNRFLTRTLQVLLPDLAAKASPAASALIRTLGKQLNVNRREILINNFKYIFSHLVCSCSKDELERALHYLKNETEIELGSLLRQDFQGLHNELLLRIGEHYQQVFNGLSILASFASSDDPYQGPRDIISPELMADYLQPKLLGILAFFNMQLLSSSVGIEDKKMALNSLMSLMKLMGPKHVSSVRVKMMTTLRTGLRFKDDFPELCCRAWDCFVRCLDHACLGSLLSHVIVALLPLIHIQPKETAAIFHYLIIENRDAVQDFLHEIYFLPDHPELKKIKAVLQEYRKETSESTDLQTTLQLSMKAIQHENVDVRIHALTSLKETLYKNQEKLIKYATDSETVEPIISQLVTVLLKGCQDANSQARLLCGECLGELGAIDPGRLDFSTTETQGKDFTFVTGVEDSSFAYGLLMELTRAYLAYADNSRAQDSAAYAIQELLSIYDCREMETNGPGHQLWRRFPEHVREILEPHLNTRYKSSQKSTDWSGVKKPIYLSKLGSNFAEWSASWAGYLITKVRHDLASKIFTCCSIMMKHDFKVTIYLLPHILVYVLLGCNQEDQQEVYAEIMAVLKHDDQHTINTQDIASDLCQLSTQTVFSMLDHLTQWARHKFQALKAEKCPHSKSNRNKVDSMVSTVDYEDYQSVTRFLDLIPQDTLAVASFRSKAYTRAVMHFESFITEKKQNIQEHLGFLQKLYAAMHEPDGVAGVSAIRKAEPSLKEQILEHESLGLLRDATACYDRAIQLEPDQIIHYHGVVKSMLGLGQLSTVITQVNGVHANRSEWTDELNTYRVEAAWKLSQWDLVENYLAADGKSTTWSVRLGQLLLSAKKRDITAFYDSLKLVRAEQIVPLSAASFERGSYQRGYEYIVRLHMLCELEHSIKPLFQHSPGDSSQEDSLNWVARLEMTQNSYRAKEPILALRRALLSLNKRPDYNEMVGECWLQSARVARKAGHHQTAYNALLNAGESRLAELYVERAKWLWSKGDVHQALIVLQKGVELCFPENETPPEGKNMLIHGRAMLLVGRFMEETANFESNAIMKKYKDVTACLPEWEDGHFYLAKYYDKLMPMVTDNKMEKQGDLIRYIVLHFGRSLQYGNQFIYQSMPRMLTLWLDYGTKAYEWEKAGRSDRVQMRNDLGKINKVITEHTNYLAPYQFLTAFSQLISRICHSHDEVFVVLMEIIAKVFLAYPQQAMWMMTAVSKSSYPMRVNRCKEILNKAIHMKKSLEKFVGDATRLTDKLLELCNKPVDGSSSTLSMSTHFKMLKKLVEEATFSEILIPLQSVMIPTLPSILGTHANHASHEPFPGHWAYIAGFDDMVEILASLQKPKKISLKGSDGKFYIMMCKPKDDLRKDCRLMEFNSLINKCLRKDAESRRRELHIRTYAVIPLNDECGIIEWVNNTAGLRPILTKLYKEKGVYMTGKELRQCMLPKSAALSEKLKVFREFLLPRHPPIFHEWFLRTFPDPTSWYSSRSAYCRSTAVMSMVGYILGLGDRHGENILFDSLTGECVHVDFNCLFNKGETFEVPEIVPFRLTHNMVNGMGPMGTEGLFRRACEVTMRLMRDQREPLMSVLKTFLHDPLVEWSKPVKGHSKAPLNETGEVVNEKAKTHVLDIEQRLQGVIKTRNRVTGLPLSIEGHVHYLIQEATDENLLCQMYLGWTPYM
Chain of ATR/ATRIP kinase (Q8WXE1 whole entry partner): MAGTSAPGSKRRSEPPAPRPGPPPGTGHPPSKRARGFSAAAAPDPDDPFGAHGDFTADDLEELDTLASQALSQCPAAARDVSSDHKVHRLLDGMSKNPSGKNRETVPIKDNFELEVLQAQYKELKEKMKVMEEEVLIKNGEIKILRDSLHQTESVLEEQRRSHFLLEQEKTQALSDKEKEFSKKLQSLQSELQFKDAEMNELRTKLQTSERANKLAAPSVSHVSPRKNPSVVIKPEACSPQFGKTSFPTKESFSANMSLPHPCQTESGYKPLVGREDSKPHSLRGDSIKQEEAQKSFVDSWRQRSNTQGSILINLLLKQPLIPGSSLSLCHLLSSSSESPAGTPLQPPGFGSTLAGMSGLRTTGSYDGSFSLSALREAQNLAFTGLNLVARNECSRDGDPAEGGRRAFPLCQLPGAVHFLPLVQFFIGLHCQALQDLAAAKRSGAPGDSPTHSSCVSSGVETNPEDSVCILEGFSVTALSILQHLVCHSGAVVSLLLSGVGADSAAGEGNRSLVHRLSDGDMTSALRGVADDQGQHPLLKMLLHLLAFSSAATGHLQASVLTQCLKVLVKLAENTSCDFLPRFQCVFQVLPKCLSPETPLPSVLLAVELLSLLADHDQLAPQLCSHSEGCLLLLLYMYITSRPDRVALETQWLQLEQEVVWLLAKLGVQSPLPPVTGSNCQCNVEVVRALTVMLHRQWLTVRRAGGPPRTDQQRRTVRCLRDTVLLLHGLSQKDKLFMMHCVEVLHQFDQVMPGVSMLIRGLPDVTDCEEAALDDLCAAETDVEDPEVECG
Protocol: In this experiment, the phosphorylation level of substrate protein P53 (Eurofins, 14-952) was detected by HTRF technology to measure the activity of ATR/ATRIP (Eurofins, 14-953) kinase. Reaction buffer (25 mM HEPES pH 8.0, 0.01% Brij-35, 1% Glycerol, 5 mM DTT, 1 mg/mL BSA), termination buffer (12.5 mM HEPES pH 8.0, 0.005% Brij-35, 0.5% Glycerol, 250 mM EDTA) and assay buffer (50 mM HEPES pH 7.0, 150 mM NaCl, 267 mM KF, 0.1% sodium cholate, 0.01% Tween 20) were prepared in advance. ATR/ATRIP was diluted with reaction buffer to a working solution of 2 ng/μL, and the substrate protein P53 was diluted with reaction buffer to a working solution of 80 nM, and 4 nM of ATP (Sigma, A2383) working solution (containing 40 mM MnCl2) was prepared with reaction buffer. The compound was 3-fold diluted with DMSO, then diluted with reaction buffer into a working solution, then added to a 384-well plate at 2.5 μL/well, and centrifuged at 1500 rpm for 40 s. Then 2.5 μL of ATR/ATRIP working solution, P53 working solution and ATP working solution were added into the 384-well plate, centrifuged at 1500 rpm for 40 s and reacted at room temperature for 30 minutes. After the reaction was completed, 5 μL of termination buffer was added to each well, and centrifuged at 1500 rpm for 40 s. Antibody working solution containing 0.083 μg/mL anti-phospho-p53 (Ser15)-K (CisBio, cat. 61P08KAE) and 5 μg/mL anti-GST-d2 (CisBio, cat. 61GSTDLA) was prepared with assay buffer and added to the 384-well plate at 5 μL/well, then centrifuged at 1500 rpm for 40 s and reacted overnight at room temperature. Microplate reader (Tecan, Infinite M1000 Pro) was used to detect TR-FRET, and the data were analyzed with Graphpad software, and the four-parameter equation was used to fit the curve and calculate the IC50 value of the inhibitor (Table 1).

[3] = substrate Midazolam, read-out: IC50 3A4 (Midazolam)
[4] = substrate Testosterone, read-out: IC50 3A4 (Testosterone)

Chain of CYP3A4 (P08684 whole entry): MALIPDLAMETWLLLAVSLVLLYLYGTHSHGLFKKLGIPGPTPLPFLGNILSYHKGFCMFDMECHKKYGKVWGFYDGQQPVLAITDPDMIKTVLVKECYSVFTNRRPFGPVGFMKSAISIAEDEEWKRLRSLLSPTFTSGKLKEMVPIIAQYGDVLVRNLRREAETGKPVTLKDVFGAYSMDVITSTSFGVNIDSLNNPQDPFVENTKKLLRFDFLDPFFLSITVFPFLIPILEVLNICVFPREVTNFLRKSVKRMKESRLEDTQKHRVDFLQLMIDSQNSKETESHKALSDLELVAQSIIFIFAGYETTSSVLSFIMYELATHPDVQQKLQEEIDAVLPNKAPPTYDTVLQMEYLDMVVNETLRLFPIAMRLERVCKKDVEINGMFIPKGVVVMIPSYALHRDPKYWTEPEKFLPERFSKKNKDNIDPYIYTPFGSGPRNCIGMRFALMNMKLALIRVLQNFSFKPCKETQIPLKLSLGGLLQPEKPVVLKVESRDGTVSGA

IC50 [1, 3] [µM]	IC50 [1, 4] [µM]	IC50 [2] [nM]	Structure (SMILES)
> 10	> 10	0.69	C[C@@H]1COCCN1c1nc2c(cnn2-c2cc[nH]n2)c2c1CCN2S(C)(=O)=O [Compound 2, (R)-3-methyl-4-(1-(methylsulfonyl)-6-(1H-pyrazol-3-yl)-1,2,3,6-tetrahydropyrazolo[3,4-b]pyrrolo[2,3-d]pyridin-4-yl)morpholine trifluoroacetate]
> 10	> 10	1.2	C[C@@H]1COCCN1c1nc2c(cnn2-c2cc[nH]n2)c2c1ccn2S(C)(=O)=O [Compound 1, (R)-3-methyl-4-(1-(methylsulfonyl)-6-(1H-pyrazol-3-yl)-1,6-dihydropyrazolo[3,4-b]pyrrolo[2,3-d]pyridin-4-yl)morpholine trifluoroacetate]
